Assays:
[1] = system: myeloid cell compartment; test: Flow cytometry of leukocytes and myeloid cell compartment in blood, spleen and allograft of heart transplant recipients; assay type: in vivo, mice; conditions: six days after transplantation
Description: The leukocyte population was profiled and, more extensively, the myeloid cell compartment, including neutrophils. Mo/MΦ and DC, in the blood, spleens and allografts of mice receiving placebo, oral rapamycin (Oral-Ra) and mTOR-HDL treatments, where the treatment regimen involved three intravenous mTOR-HDL injections, on the day of, as well as at two and five days post transplantation.
Mo/MΦ comprise two different subsets (Ly-6C^hi and Ly-6C^lo) with district migratory properties^23. Six days after transplantation, untreated and Oral-Ra-treated mice had increased numbers of accumulated myeloid cells in their blood, spleen and heart allografts (FIG. 2B and FIG. 9A). Further, the elevated Mo/MΦ populations contained high percentages of inflammatory Ly6C^hi monocytes (FIGS. 9A and 2B). […] The Mo/MΦ subset proportions in the spleen and transplanted organs reflected the levels in peripheral blood (FIG. 1E).
Mouse hearts were rinsed in situ with HBSS with 1% heparin. Explanted hearts were cut into small pieces and digested for 40 minutes at 37° C. with 400 U/ml collagenase IV (Sigma-Aldrich), 10 mM HEPES (Cellgro) and 0.01% DNase 1 (MP Biomedicals) in HBSS (Cellgro). Digested suspensions were passed through a nylon mesh and centrifuged, and the cell pellet was re-suspended in complete HBSS, stained and analyzed by flow cytometry (BD LSR-II; BD Biosciences).
For myeloid cell staining, fluorochrome-conjugated mAbs specific to mouse CD45 (clone 30-F11). CD11b (clone MI/70), CD11c (clone N418), F4/80 (clone CI:A3.1). Ly-6C (clone HK1.4) and corresponding isotype controls were purchased from eBioscience. Ly-6G (clone 1A8) mAb was purchased from Biolegend. F4/80 (clone CI:A3.1) was purchased from AbD Serotec. […] Flow cytometric analysis was performed on LSR II (BD Biosciences) and analyzed with FlowJo software (Tree Star, Inc.). Results are expressed as percentage of cells staining or cells counting (cells per milliliter) above background. mAbs were titered at regular intervals during the course of these studies to ensure the use of saturating concentrations. […]

[2] = system: cardiac allografts; test: Heart allograft survival (BALB/c into C57BL/6); assay type: in vivo, mice; conditions: over a 50-day period, three doses 5 mg/kg rapamycin
Description: Lastly, nanoimmunotherapy treatment's capacity to prevent organ rejection and prolong allograft survival was evaluated. Balb/c (H2^d) donor cardiac allografts were transplanted into fully allogeneic C57Bl/6 (H2) recipients treated with: (1) placebo. […] To assess graft survival, recipients underwent abdominal palpation until cardiac contractions completely ceased.
BALB/c hears were transplanted as fully vascularized heterotopic grafts into C57BL/6 mice as previously described^45. […] Cardiac allograft survival was subsequently assessed through daily palpation. Rejection was defined as the complete cessation of cardiac contraction and was confirmed by direct visualization at laparotomy. Graft survival was compared among groups using Kaplan-Meier survival analysis.

[3] = mouse, in vivo, po
[4] = system: RAW 264.7 cell line of murine macrophages; test: In vitro BrdU incorporation in RAW 264.7 macrophages; assay type: cell-based; conditions: 24 hours

SMILES: CO[C@H]1C[C@@H]2CC[C@@H](C)[C@@](O)(O2)C(=O)C(=O)N2CCCC[C@H]2C(=O)O[C@H]([C@H](C)C[C@@H]2CC[C@@H](O)[C@H](OC)C2)CC(=O)[C@H](C)/C=C(\C)[C@@H](O)[C@@H](OC)C(=O)[C@H](C)C[C@H](C)/C=C/C=C/C=C/1C [Oral-Ra, rapamycin]
- Ly-C^lo monocytes in blood [1]: 13%
- Ly-C^lo monocytes in heart allografts [1]: 18%
- Ly-C^lo monocytes in spleen [1]: 44%
- allograft survival [2]: 35%
- kidney toxicity parameters [3]: statistical differences between Oral-Ra and mTOR-HDL

SMILES: Cc1ccc(C)c(N/C=C/C(=O)c2ccccc2)c1 [compound 6877002, (2E)-1-phenyl-3-(2,5-dimethylanilino)-2-propen-1one]
- proliferation rate of RAW 264.7 macrophages [4]: did not affect the proliferation rate
